Assay results published in patent US7102009B2, “Substituted amine derivatives and methods of use” (Amgen Inc., priority 2001, dated 2006).

System: Human Umbilical Vein Endothelial cells (VEGF-stimulated HUVEC proliferation)
Assay: HUVEC Proliferation Assay (VEGF-stimulated)
Type: cell-based
Conditions: VEGF 50 ng/mL, 72 h incubation, CyQuant readout, read-out: inhibited VEGF-stimulated HUVEC proliferation at a level below (IC50)
Method: Human Umbilical Vein Endothelial cells are purchased from Clonetics, Inc., as cryopreserved cells harvested from a pool of donors. These cells, at passage 1, are thawed and expanded in EBM-2 complete medium, until passage 2 or 3. The cells are trypsinized, washed in DMEM+10% FBS+antibiotics, and spun at 1000 rpm for 10 min. Prior to centrifugation of the cells, a small amount is collected for a cell count. After centrifugation, the medium is discarded, and the cells are resuspended in the appropriate volume of DMEM+10% FBS+antibiotics to achieve a concentration of 3×10^5 cells/mL. Another cell count is performed to confirm the cell concentration. The cells are diluted to 3×10^4 cells/mL in DMEM+10% FBS+antibiotics, and 100 μL of cells are added to a 96-well plate. The cells are incubated at 37° C. for 22 h.
Prior to the completion of the incubation period, compound dilutions are prepared. Five-point, five-fold serial dilutions are prepared in DMSO, at concentrations 400-fold greater than the final concentrations desired. 2.5 μL of each compound dilution are diluted further in a total of 1 mL DMEM+10% FBS+antibiotics (400× dilution). Medium containing 0.25% DMSO is also prepared for the 0 μM compound sample. At the 22-hour timepoint, the medium is removed from the cells, and 100 μL of each compound dilution is added. The cells are incubated at 37° C. for 2-3 h.
During the compound pre-incubation period, the growth factors are diluted to the appropriate concentrations. Solutions of DMEM+10% FBS+antibiotics, containing either VEGF or bFGF at the following concentrations: 50, 10, 2, 0.4, 0.08, and 0 ng/mL are prepared. For the compound-treated cells, solutions of VEGF at 550 ng/mL or bFGF at 220 ng/mL for 50 ng/mL or 20 ng/mL final concentrations, respectively, are prepared since 10 μL of each will be added to the cells (110 μL final volume). At the appropriate time after adding the compounds, the growth factors are added. VEGF is added to one set of plates, while bFGF is added to another set of plates. For the growth factor control curves, the media on wells B4-G6 of plates 1 and 2 are replaced with media containing VEGF or bFGF at the varying concentrations (50-0 ng/mL). The cells are incubated at 37° C. for an additional 72 h.
At the completion of the 72 h incubation period, the medium is removed, and the cells are washed twice with PBS. After the second wash with PBS, the plates are tapped gently to remove excess PBS, and the cells are placed at −70° C. for at least 30 min. The cells are thawed and analyzed using the CyQuant fluorescent dye (Molecular Probes C-7026), following the manufacturer's recommendations. The plates are read on a Victor/Wallac 1420 workstation at 485 nm/530 nm (excitation/emission). Raw data are collected and analyzed using a 4-parameter fit equation in XLFit. IC50 values are then determined.

SMILES	IC50
O=C(Nc1ccc(Cl)cc1)c1cccnc1Nc1ccc2cn[nH]c2c1 [Example 3, N-(4-Chlorophenyl)[2-(1H-indazol-6-ylamino)(3-pyridyl)]carboxamide]	< 50 nM
CC(C)c1ccc(NC(=O)c2cccnc2Nc2ccc3cn[nH]c3c2)cc1 [Example 5, 2-(1H-Indazol-6-ylamino)-N-(4-isopropyl-phenyl)nicotinamide]	< 50 nM
CC(C)c1cccc(NC(=O)c2cccnc2Nc2ccc3cn[nH]c3c2)c1 [Example 6, [2-(1H-Indazol-6-ylamino)(3-pyridyl)]-N-[3-(methylethyl)phenyl]carboxamide]	< 50 nM
CCC(C)c1ccc(NC(=O)c2cccnc2Nc2ccc3cn[nH]c3c2)cc1 (stereo not drawn) [Example 7, [2-(1H-Indazol-6-ylamino)(3-pyridyl)]-N-[4-(methylpropyl)phenyl]carboxamide]	< 50 nM
CC(C)(C)c1ccc(NC(=O)c2cccnc2Nc2ccc3cn[nH]c3c2)cc1 [Example 8, N-[4-(tert-Butyl)phenyl][2-(1H-indazol-6-ylamino)(3-pyridyl)]carboxamide]	< 50 nM
O=C(Nc1cccc(C(F)(F)F)c1)c1cccnc1Nc1ccc2cn[nH]c2c1 [Example 9, [2-(1H-Indazol-6-ylamino)(3-pyridyl)]-N-[3-(trifluoromethyl)phenyl]carboxamide]	< 50 nM
CC(C)(C)c1cccc(NC(=O)c2cccnc2Nc2ccc3cn[nH]c3c2)c1 [Example 10, N-[3-(tert-Butyl)phenyl][2-(1H-indazol-6-ylamino)(3-pyridyl)]carboxamide]	< 50 nM
NS(=O)(=O)c1cc(NC(=O)c2cccnc2Nc2ccc3cn[nH]c3c2)ccc1Cl [Example 13, N-3-aminosulfonyl(4-chloro-phenyl)[2-(1H-indazol-6-ylamino)(3-pyridyl)]carboxamide]	< 50 nM
Cc1cc(=O)[nH]c2cc(NC(=O)c3cccnc3Nc3ccc4cn[nH]c4c3)ccc12 [Example 14, [2-(1H-Indazol-6-ylamino)(3-pyridyl)]-N-(4-methyl-2-oxo-1,2-dihydroquinol-7-yl)carboxamide]	< 50 nM
O=C(Nc1ccc(C(F)(F)C(F)(F)C(F)(F)C(F)(F)F)cc1)c1cccnc1Nc1ccc2cn[nH]c2c1 [Example 20, [2-(1H-Indazol-6-ylamino)(3-pyridyl)]-N-[4-(1,1,2,2,3,3,4,4,4-nonafluorobutyl)phenyl]carboxamide]	< 50 nM
CC(C)(C)c1ccc(NC(=O)c2cccnc2Nc2ccc3cn[nH]c3c2Br)cc1 [Example 22, N-[4-(tert-Butyl)phenyl]{2-[(7-bromo(1H-indazol-6-yl))amino](3-pyridyl)}carboxamide]	< 50 nM
CN1CC=C(c2cc(NC(=O)c3cccnc3Nc3ccc4cn[nH]c4c3)ccc2C(C)(C)C)CC1 [Example 23]	< 50 nM
O=C(Nc1ccc(C(O)(C(F)(F)F)C(F)(F)F)cc1)c1cccnc1Nc1ccc2cn[nH]c2c1 [Example 24]	< 50 nM
COc1ccc(C(C)(C)C)cc1NC(=O)c1cccnc1Nc1ccc2cn[nH]c2c1 [Example 25, N-[5-(tert-Butyl)-2-methoxyphenyl][2-(1H-indazol-6-ylamino)(3-pyridyl)]carboxamide]	< 50 nM
O=C1NCCc2ccc(NC(=O)c3cccnc3Nc3ccc4cn[nH]c4c3)cc21 [Example 27, 2-(1H-Indazol-6-ylamino)-N-(1-oxo-1,2,3,4-tetrahydro-isoguinolin-7-yl)-nicotinamide]	< 50 nM
CC(C)Oc1ccc(NC(=O)c2cccnc2Nc2ccc3cn[nH]c3c2)cc1 [Example 28, [2-(1H-Indazol-6-ylamino)(3-pyridyl)]-N-[4-(methylethoxy)phenyl]carboxamide]	< 50 nM
CN1CCN(c2cc(NC(=O)c3cccnc3Nc3ccc4cn[nH]c4c3)ccc2C(C)(C)C)CC1 [Example 31, N-[4-(tert-Butyl)-3-(4-methylpiperazinyl)phenyl][2-(1H-indazol-6-ylamino)(3-pyridyl)]carboxamide]	< 50 nM
COc1ccc(NC(=O)c2cccnc2Nc2ccc3cn[nH]c3c2)cc1O [Example 36, N-(3-Hydroxy-4-methoxyphenyl)[2-(1H-indazol-6-ylamino)(3-pyridyl)]carboxamide]	< 50 nM
COc1ccc(NC(=O)c2cccnc2Nc2ccc3cn[nH]c3c2)cc1OCCN(C)C [Example 37, N-{3-[2-(Dimethylamino)ethoxy]-4-methoxyphenyl)[2-(1H-indazol-6-ylamino)(3-pyridyl)]carboxamide]	< 50 nM
COc1ccc(NC(=O)c2cccnc2Nc2ccc3cn[nH]c3c2)cc1OC1CCN(C)CC1 [Example 38, [2-(1H-Indazol-6-ylamino)(3-pyridyl)]-N-[4-methoxy-3-(1-methyl(4-piperidyl)oxy)phenyl]carboxamide]	< 50 nM
O=C(Nc1ccc2c(c1)-c1nncn1CC2)c1cccnc1Nc1ccc2cn[nH]c2c1 [Example 39, [2-(1H-Indazol-6-ylamino)(3-pyridyl)]-N-(5,6,7-trihydro-1,2,4-triazolo[3,4-a]isoquinolin-2-yl)carboxamide]	< 50 nM
CN(C)CCOc1n[nH]c2cc(Nc3ncccc3C(=O)Nc3ccc(C(C)(C)C)cc3)ccc12 [Example 40, [2-({3-[2-(Dimethylamino)ethoxy](1H-indazol-6-yl)}amino)(3-pyridyl)]-N-[4-(tert-butyl)phenyl]carboxamide]	< 50 nM
CC1(C)CN(CC2CCNCC2)c2cc(NC(=O)c3cccnc3Nc3ccc4cn[nH]c4c3)ccc21 [Example 41, N-[3,3-Dimethyl-1-(4-piperidylmethyl)indolin-6-yl][2-(1H-indazol-6-ylamino)(3-pyridyl)]carboxamide]	< 50 nM
CN1CCC(CN2CC(C)(C)c3ccc(NC(=O)c4cccnc4Nc4ccc5cn[nH]c5c4)cc32)CC1 [Example 42, N-[3,3-Dimethyl-1-(1-methyl-piperidin-4-ylmethyl)-2,3-dihydro-1H-indol-6-yl]-2-(1H-indazol-6-ylamino)-nicotinamide]	< 50 nM
O=C(Nc1ccc(Oc2ccccc2)cc1)c1cccnc1Nc1ccc2cn[nH]c2c1 [Example 43, 2-(1H-Indazol-6-ylamino)-N-(4-phenoxy-phenyl)-nicotinamide]	< 50 nM
O=C(Nc1ccc(-c2ccccc2)cc1)c1cccnc1Nc1ccc2cn[nH]c2c1 [Example 45, [2-(1H-Indazol-6-ylamino)(3-pyridyl)]-N-(4-phenylphenyl)carboxamide]	< 50 nM
CS(=O)(=O)c1ccc(NC(=O)c2cccnc2Nc2ccc3cn[nH]c3c2)cc1 [Example 46, [2-(1H-Indazol-6-ylamino)(3-pyridyl)]-N-[4-(methylsulfonyl)phenyl]carboxamide]	< 50 nM
CN1CCC(N2CC(C)(C)c3ccc(NC(=O)c4cccnc4Nc4ccc5cn[nH]c5c4)cc32)CC1 [Example 48, N-[3,3-Dimethyl-1-(1-methyl(4-piperidyl))indolin-6-yl][2-(1H-indazol-6-ylamino)(3-pyridyl)]carboxamide]	< 50 nM
O=C(Nc1ccc(C(F)(F)F)cc1)c1cccnc1Nc1ccc2cn[nH]c2c1 [Example 50, [2-(1H-Indazol-6-ylamino)(3-pyridyl)]-N-[4-(trifluoromethyl)phenyl]carboxamide]	< 50 nM
CN(C)CCCc1cc(NC(=O)c2cccnc2Nc2ccc3cn[nH]c3c2)cc(C(F)(F)F)c1 [Example 51, N-{3-[3-(Dimethylamino)propyl]-5-(trifluoromethyl)phenyl}[2-(1H-indazol-6-ylamino)(3-pyridyl)]carboxamide]	< 50 nM
